Data as given in PMC10762068, “Selective blockade of Cav1.2 (α1C) versus Cav1.3 (α1D) L-type calcium channels by the black mamba toxin calciseptine” (Nature Communications, 2024).
Positions of bridges follow the written chain, without caps; N, C: chain ends. No end group written: not given here.

Assays:
Cav1.3_42a = assay: Whole cell recording of ICav1.3-42a in HEK-293T cells; assay type: cell-based; conditions: for L-type Ca2+ current density: mean ± SEM, n=9
Protocol: (§1) HEK-293T (RRID:CVCL_2737) were obtained from the European Collection of Authenticated Cell Cultures (ECACC 96121229). The identity of HEK-293T has been confirmed by STR profiling and the cells have been eradicated from mycoplasma at ECACC. We routinely tested the cells for the absence of the mycoplasma contamination. Cells were cultivated at 37 °C in DMEM supplemented with GlutaMax, 10% fetal bovine serum and 1% penicillin/streptomycin (Invitrogen, Fisher Scientific, France). Transfections were performed using jet-PEI (Ozyme, France) with a DNA mix containing either the plasmids that code for Cav1.2-GFP, β2a and α2δ (0.8 µg of each) or either the plasmids that code for Cav1.3 (with and without exon 42a), or Cav2.1, or either Cav2.2 combined with β2a and α2δ (0.8 µg of each supplemented with 0.025 µg of a plasmid coding for GFP). For Cav3.1 expression β2a and α2δ subunits were omitted. Plasmids coding for β2a, α2δ and Cav1.3 were created as described previously. Plasmid coding for Cav1.2-GFP was obtained from Dr. Catalucci[60]. After transfection cells were placed at 30 °C for 2–3 days and dissociated with Versene (Invitrogen, Fisher Scientific, France) and plated at a density of ~35 × 10^3 cells per 35 mm Petri dish for electrophysiological recordings, which were performed the following day.
(§2) Macroscopic currents in HEK-293T cells were recorded at room temperature using an Axopatch 200B or Multiclamp 700B patchclamp amplifier (Molecular Devices, Sunnyvale CA). […] The extracellular solution contained (in mM): 135 NaCl, 20 TEACl, 5 BaCl2, 1 MgCl2, and 10 HEPES (pH adjusted to 7.25 with KOH, ~330 mOsm).
(§3) In all experiments of cellular electrophysiology, we employed synthetized analog of Cas, commercially available at Latoxan (ID: L8109). The native peptide was purified from the venom of Dendroaspis polylepis purchased from Latoxan, as previoulsly described. The pure peptide was obtained after gel filtration, cation exchange and C18 reversed phase chromatography. Its measured molecular mass (7036.26 Da average) was in accordance with the mass calculated from sequence data (7036.22 Da).

Cav1.3_42 = assay: Whole cell recording of ICav1.3-42 in HEK-293T cells; assay type: cell-based; conditions: for L-type Ca2+ current density: mean ± SEM, n=6
Protocol: as §1, §2, §3

[1] = system: SAN myocytes from Wild-Type mice; assay: Spontaneous action potentials, perforated patch-clamp, SAN pacemaker myocytes; assay type: cell-based, mouse; conditions: for action potential duration APD30: 30% repolarization; for action potential duration APD30 / action potential duration APD50 / action potential duration APD70 / action potential duration APD90 / slope of linear part of diastolic depolarization (SLDD) / slope of exponential part of diastolic depolarization (SEDD) / action potential amplitude (APA) / action potential rate: mean ± SEM; for action potential duration APD50: 50% repolarization; for action potential duration APD70: 70% repolarization; for action potential duration APD90: 90% repolarization
Protocol: Hearts from Wild-Type and Cav1.3^−/− mice were removed under general anesthesia consisting of 0.01 mg/g xylazine (2% Rompun; Bayer AG) and 0.1 mg/g ketamine (Imalgène;Merial) and immersed in a pre-warmed (36 °C) Tyrode solution containing (mM): 140 NaCl, 5.4 KCl, 1 MgCl2, 1.8 CaCl2, 5.5 D-glucose, and 5 Hepes (adjusted to pH 7.4 with NaOH). […] SAN tissue was excised and transferred into a low-Ca^2+ solution containing (mM): 140 NaCl, 5.4 KCl, 0.5 MgCl2, 0.2 CaCl2, 1.2 KH2PO4, 50 taurine, 5.5 D-glucose, 1 mg/mL BSA, and 5 Hepes–NaOH (adjusted to pH 6.9 with NaOH) for 5 min. Then, enzymatic digestion was carried out for 20-25 min at 36 °C in the low-Ca^2+ solution containing LiberaseTH Research Grade (0.15 mg/mL; Roche, Mannheim, Germany) and elastase (0.5 mg/mL; Worthington, Lakewood, NJ, USA). Digestion was stopped by washing the SAN in a “Kraftbrühe” (KB) medium containing (mM) 100 K-glutamate, 10 K-aspartate, 25 KCl, 10 KH2PO4, 2 MgSO4, 20 taurine, 5 creatine, 0.5 EGTA, 20 D-glucose, 5 Hepes, and 1 mg/mL BSA (adjusted to pH 7.2 with KOH). Single SAN cells were then dissociated from the SAN tissue by manual agitation using a flame-forged Pasteur’s pipette. To recover the automaticity of the SAN cells, Ca^2+ was gradually reintroduced in the cell’s storage solution to a final concentration of 1.8 mM. SAN cells were then left to rest for 1 h before recordings.
For patch-clamp recordings of SAN myocytes, cells were harvested in custom-made chambers with glass bottoms for cell attachment. Cells were then super-fused with Tyrode’s solution warmed at 36 °C before recording. Action potentials and ionic currents were recorded using an Axon multi-clamp patch-clamp 700B amplifier. Voltage-gated L-type Ca^2+ currents (ICaL) were recorded using standard whole cell patch-clamp configuration. For recording ICaL, we used an extracellular recording solution contained (mM): 135 tetraethylammonium chloride (TEA-Cl), 10 4-aminopyridine (4-AP), 1 MgCl2, 0.03 tetrodotoxin (TTX), 1 g/L Glucose, 2 CaCl2, 10 Hepes, (adjusted to pH = 7.2 with TEAOH). […] Pacemaker activity was recorded by the perforated patch-clamp technique using escin (40 µg/ml). For recording cell automaticity glass pipettes were filled with the intracellular solution contained (mM): 80 K-Aspartate, 50 KCl, 1 MgCl2, 5 HEPES, 2 CaCl2, 5 EGTA, 3 ATP-Na+ salt; pH was adjusted to 7.2 with KOH. Escin was dissolved in sterile H2O and added to the intracellular solution right before each experiment.
We used an extracellular recording solution (Tyrode’s based) contained (mM): 140 NaCl, 5.4 KCl, 1 MgCl2, 1.8 CaCl2, 5 HEPES, 5.5 D-Glucose; pH was set to 7.4 with NaOH. AP parameters have been calculated as reported in Baudot et al.[10]. Data were analyzed using pCLAMP9 (Molecular Devices) and GraphPad Prism (GraphPad) software.
as §3

[2] = Cas 300 nM alone (n=9/N=4) or + Nife 3 µM (n=8/N=4)
[3] = Cas 1 µM alone (n=12/N=3) or + Nife 3 µM (n=9/N=3)

RICYIHKASLPRATKTCVENTCYKMFIRTQREYISERGCGCPTAMWPYQTECCKGDRCNK (disulfide 3-22, 17-39, 41-52, 53-58 (inferred)) [Cas, calciseptine]
effect on ICav1.3-42a (I-V relationship) (Cav1.3_42a; Cas 300 nM, all voltages tested, at peak p = 0.8148, n=9/N=4): no significant effect
L-type Ca2+ current density (Cav1.3_42a; Cas 300 nM, 0 mV, Ctrl -20.06± 5.37): -19.52± 4.21 pA/pF
L-type Ca2+ current density (Cav1.3_42a; Cas 300 nM, +10 mV, Ctrl -13.99± 3.71): -13.16± 2.99 pA/pF
L-type Ca2+ current density (Cav1.3_42a; Cas 300 nM, +20 mV, Ctrl -7.80± 2.21): -6.44± 1.89 pA/pF
L-type Ca2+ current density (Cav1.3_42a; Cas 300 nM, +30 mV, Ctrl -2.75± 1.09): -1.13± 1.30 pA/pF
L-type Ca2+ current density (Cav1.3_42a; Cas 300 nM, -10 mV, Ctrl -24.04± 6.83): -23.42± 5.08 pA/pF
L-type Ca2+ current density (Cav1.3_42a; Cas 300 nM, -20 mV, Ctrl -21.97± 6.85): -21.55± 4.86 pA/pF
reduction of ICav1.3-42a (Cav1.3_42a; all concentrations tested (up to 1 µM), holding −60 mV, step 0 mV, 300 nM n=13/N=4, 1 µM n=8/N=4): did not record a statistically significant reduction
reduction of Ca current, long form of Cav1.3 (Cav1.3L) (Cav1.3_42; Cas 300 nM and 1 µM): did not observe any reduction
effect on ICav1.3-42 (I-V relationship) (Cav1.3_42; Cas 300 nM, all voltages tested, at peak p = 0.5696, n=6/N=3): no significant effect
L-type Ca2+ current density (Cav1.3_42; Cas 300 nM, 0 mV, Ctrl -15.10± 3.34): -14.76± 4.28 pA/pF
L-type Ca2+ current density (Cav1.3_42; Cas 300 nM, +10 mV, Ctrl -12.01± 2.36): -11.09± 3.45 pA/pF
L-type Ca2+ current density (Cav1.3_42; Cas 300 nM, +20 mV, Ctrl -6.20± 1.35): -6.12± 2.78 pA/pF
L-type Ca2+ current density (Cav1.3_42; Cas 300 nM, +30 mV, Ctrl -3.03± 0.66): -2.96± 2.36 pA/pF
L-type Ca2+ current density (Cav1.3_42; Cas 300 nM, -10 mV, Ctrl -15.68± 3.76): -15.81± 4.50 pA/pF
L-type Ca2+ current density (Cav1.3_42; Cas 300 nM, -20 mV, Ctrl -12.28± 3.31): -12.95± 3.93 pA/pF
reduction of ICav1.3-42 (Cav1.3_42; all concentrations tested (up to 1 µM), holding −60 mV, step 0 mV, 300 nM n=6/N=3, 1 µM n=7/N=3): did not record a statistically significant reduction
effect on AP duration ([1]; Cas 300 nM): did not affect AP duration
action potential duration APD30 [1, 2]: 28 ± 2 ms
action potential duration APD50 [1, 2]: 46 ± 4 ms
action potential duration APD70 [1, 2]: 66 ± 6 ms
action potential duration APD90 [1, 2]: 98 ± 8 ms
slope of linear part of diastolic depolarization (SLDD) ([1]; Cas 300 nM alone (n=9/N=4) or + Nife 3 µM (n=8/N=4), Ctrl 0.06 ± 0.01): ^$0.05 ± 0.01^p=0.0128 mV/ms
slope of exponential part of diastolic depolarization (SEDD) ([1]; Cas 300 nM alone (n=9/N=4) or + Nife 3 µM (n=8/N=4), Ctrl 0.51 ± 0.09): ^$0.40 ± 0.04^p=0.0078 mV/ms
action potential amplitude (APA) ([1]; Cas 300 nM alone (n=9/N=4) or + Nife 3 µM (n=8/N=4), Ctrl 83 ± 2): 75 ± 3 mV
action potential rate ([1]; Cas 300 nM alone (n=9/N=4) or + Nife 3 µM (n=8/N=4), Ctrl 200 ± 21): ^$194 ± 19^p=0.0004 bpm
effect on AP amplitude ([1]; Cas 300 nM and 1 µM): reduced AP amplitude
effect on AP firing rate ([1]; Cas 300 nM and 1 µM): did not affect AP firing rate
effect on maximum diastolic potential, threshold potential and upstroke velocity ([1]; Cas 300 nM or 1 µM): did not observe statistically significant differences
effect on slopes of linear and exponential diastolic depolarization ([1]; Cas 300 nM or 1 µM): did not change
effect on AP duration at 30% and 50% of repolarization ([1]; Cas 1 µM): had statistically significant effect
action potential duration APD30 [1, 3]: 25 ± 2 ms
action potential duration APD50 [1, 3]: 43 ± 3 ms
action potential duration APD70 [1, 3]: 61 ± 3 ms
action potential duration APD90 [1, 3]: 87 ± 4 ms
slope of linear part of diastolic depolarization (SLDD) ([1]; Cas 1 µM alone (n=12/N=3) or + Nife 3 µM (n=10/N=3), Ctrl 0.07 ± 0.01): ^$0.06 ± 0.01^p=0.0187 mV/ms
slope of exponential part of diastolic depolarization (SEDD) ([1]; Cas 1 µM alone (n=12/N=3) or + Nife 3 µM (n=10/N=3), Ctrl 0.48 ± 0.06): ^$0.50 ± 0.06^p=0.0002 mV/ms
action potential amplitude (APA) ([1]; Cas 1 µM alone (n=12/N=3) or + Nife 3 µM (n=10/N=3), Ctrl 91 ± 2): 85 ± 3 mV
action potential rate ([1]; Cas 1 µM alone (n=12/N=3) or + Nife 3 µM (n=10/N=3), Ctrl 218 ± 15): ^$213 ± 15^p<0.0001 bpm
